Columns and labels:
[1] = PAMPA (parallel artificial membrane permeability assay); format: in vitro ADME
Method: PAMPA – methods and results (Table S2)
PAMPA was carried out in 96-well microtiter filter plates obtained from Millipore as described1 with some modifications. Each well of the filter plate was impregnated with 15 µL of 5% hexadecane dissolved in hexane (i.e. total amount of hexadecane: 0.75 µL) for at least 10 minutes in ventilated environment to allow for complete evaporation of hexane. Donor compartments were filled with 200 µL compound-containing donor solutions of compounds dissolved in 5% DMSO, phosphate buffered saline PBS) and connected to acceptor plate prefilled with buffer (5% DMSO in PBS, pH 7.4). The resulting sandwich was incubated at room temperature under gentle shaking and wrapped in wet paper towels to avoid evaporation. After 10 hours, the sandwich was disassembled and the solutions in the acceptor and donor were transferred to a disposable UV-transparent plate. UV absorption was measured at wavelengths between 220 and 340 nm using a microplate reader (CLARIOstar).
Compounds were tested at 500 µM. Calibration to determine concentration of compounds were performed with varying compound concentrations in buffer (5% DMSO in PBS).
The artificial membrane permeability is expressed as fraction absorbed (Fa%)2 or log Pe (log of the effective permeability)1. LogD values at pH 7.4 were calculated using MarvinSketch.
Fa% = 100 ∙CA ∙VA / CD0 ∙ VD where: CA = final drug concentration in the acceptor well (µM)
VA = volume in the acceptor well (cm3)
CD0 = Initial drug concentration in the donor well (µM)
VD = volume in the donor well (cm3) log P (cm/s) = log -ln 1-CA/Cequilibrium
S = surface area (cm2), typically 0.268 cm2
Cequilibrium = theoretical equilibrium concentration = [CD ∙VD+CA ∙VA] / [VD+VA] where: CD = final drug concentration in the donor well (µM)
CA = final drug concentration in the acceptor well (µM)
Table S2. Permeability data.
Compounds Fa (%) PAMPA log Pe (cm/s) cLogD (pH = 7.4)

[2] = molecular target: T1, Porcine PDH E1 (Sus scrofa, UniProt P29804); parameters: method as in PMID 37201323; settings: assay conditions of previous study; cited from earlier work
T1 sequence (P29804 31-390): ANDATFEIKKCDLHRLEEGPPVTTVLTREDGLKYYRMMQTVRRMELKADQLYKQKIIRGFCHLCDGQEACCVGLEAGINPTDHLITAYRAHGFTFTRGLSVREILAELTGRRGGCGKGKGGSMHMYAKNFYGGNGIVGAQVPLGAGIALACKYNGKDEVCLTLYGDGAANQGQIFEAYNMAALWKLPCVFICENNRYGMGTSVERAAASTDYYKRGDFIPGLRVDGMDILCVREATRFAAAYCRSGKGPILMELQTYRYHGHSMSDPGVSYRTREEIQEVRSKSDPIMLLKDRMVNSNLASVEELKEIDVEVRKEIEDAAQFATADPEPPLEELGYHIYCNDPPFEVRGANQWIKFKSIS

[3] = molecular target: T2, S. cerevisiae PDC (Saccharomyces cerevisiae, UniProt P06169); parameters: method as in PMID 37201323; settings: assay conditions of previous study; cited from earlier work
T2 construct: purchased Sigma
T2 sequence (P06169 2-563 limits assumed): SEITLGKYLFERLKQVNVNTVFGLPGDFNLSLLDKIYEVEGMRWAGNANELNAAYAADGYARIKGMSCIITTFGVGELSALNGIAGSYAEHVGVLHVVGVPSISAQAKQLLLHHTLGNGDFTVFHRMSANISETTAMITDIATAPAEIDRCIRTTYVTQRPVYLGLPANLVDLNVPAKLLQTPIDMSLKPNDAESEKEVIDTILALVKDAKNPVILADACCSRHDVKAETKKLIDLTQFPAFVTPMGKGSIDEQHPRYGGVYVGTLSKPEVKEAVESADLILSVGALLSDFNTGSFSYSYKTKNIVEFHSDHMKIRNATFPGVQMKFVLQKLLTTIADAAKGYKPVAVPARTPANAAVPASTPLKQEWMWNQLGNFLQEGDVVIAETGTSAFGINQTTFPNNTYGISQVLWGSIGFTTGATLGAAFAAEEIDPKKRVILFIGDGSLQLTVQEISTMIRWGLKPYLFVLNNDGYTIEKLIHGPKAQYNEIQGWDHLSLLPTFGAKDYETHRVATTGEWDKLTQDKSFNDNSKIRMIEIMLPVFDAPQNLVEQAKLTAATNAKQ

[4] = molecular target: A. viridans PO (Aerococcus viridans, UniProt A9X9K8); parameters: method as in PMID 37201323; settings: assay conditions of previous study; cited from earlier work
[5] = molecular target: E. coli OGDH E1 (Escherichia coli, UniProt P0AFG3); parameters: method as in PMID 37201323; settings: assay conditions of previous study; cited from earlier work
Chain of E. coli OGDH E1 (P0AFG3 whole entry): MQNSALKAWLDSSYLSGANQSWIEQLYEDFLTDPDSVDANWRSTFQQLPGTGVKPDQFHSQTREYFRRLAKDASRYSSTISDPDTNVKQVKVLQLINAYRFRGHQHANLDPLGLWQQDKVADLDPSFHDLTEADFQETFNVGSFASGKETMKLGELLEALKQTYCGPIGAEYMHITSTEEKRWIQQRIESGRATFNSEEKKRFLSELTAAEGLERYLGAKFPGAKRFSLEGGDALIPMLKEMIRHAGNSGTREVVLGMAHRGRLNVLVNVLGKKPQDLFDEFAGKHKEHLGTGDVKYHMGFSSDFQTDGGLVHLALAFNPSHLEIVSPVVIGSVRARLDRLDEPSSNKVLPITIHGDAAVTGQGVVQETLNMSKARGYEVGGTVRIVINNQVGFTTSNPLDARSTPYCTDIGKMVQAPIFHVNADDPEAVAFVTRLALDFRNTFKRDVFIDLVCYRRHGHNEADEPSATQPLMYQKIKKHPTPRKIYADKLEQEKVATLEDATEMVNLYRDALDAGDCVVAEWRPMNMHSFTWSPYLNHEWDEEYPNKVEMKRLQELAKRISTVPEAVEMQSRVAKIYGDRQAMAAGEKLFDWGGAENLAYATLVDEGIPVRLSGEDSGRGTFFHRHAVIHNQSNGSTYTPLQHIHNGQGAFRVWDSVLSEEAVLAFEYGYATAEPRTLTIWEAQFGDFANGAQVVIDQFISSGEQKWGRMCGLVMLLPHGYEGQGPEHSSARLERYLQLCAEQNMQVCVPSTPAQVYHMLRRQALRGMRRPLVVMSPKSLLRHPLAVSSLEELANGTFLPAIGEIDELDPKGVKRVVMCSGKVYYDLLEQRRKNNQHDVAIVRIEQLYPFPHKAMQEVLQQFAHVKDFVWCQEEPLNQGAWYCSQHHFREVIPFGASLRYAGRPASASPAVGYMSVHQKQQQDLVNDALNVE

Chain of A. viridans PO (A9X9K8 entry or part of it): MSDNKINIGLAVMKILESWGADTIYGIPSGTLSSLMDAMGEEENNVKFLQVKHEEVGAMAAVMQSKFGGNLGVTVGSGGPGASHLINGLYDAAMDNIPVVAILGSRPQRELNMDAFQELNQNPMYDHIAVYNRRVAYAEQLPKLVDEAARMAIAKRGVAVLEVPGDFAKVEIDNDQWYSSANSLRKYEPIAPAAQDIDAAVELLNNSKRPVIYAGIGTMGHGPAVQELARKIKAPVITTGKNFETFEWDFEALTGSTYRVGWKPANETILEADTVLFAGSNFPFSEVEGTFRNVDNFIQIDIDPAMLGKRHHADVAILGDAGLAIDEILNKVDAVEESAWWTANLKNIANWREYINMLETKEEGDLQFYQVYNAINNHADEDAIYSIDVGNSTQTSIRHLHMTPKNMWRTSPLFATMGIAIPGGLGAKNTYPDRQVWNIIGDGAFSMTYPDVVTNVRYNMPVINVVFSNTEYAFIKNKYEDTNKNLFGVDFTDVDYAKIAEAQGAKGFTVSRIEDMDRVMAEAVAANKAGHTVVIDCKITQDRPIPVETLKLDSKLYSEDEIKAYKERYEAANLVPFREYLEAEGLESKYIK

Cc1ncc(Cn2cc(CCOP(=O)(O)O)nn2)c(N)n1 [compound 5]
membrane permeability in PAMPA (in words) [1]: membrane-impermeable | Papp at 10 h, 500 µM ([1]; PAMPA, compounds at 500 µM, 5% DMSO in PBS pH 7.4, 10 hours, room temperature, read-out: PAMPA log Pe (converted)): 3.98 nm/s | Fa (fraction absorbed) ([1]; compounds at 500 µM, 5% DMSO in PBS pH 7.4, 10 hours, room temperature): 2% | IC50 [2]: 6.6 µM | IC50 [3]: 1300 µM | IC50 [4]: 348 µM | IC50 [5]: 170 µM

Source: paper PMC11483378, “Triazole-Based Thiamine Analogues as Inhibitors of Thiamine Pyrophosphate-Dependent Enzymes: 1,3-Dicarboxylate for Metal Binding” (ACS Omega, 2024)
